Source: patent publication US20260055441A1, “A PCR-ELISA ANALOGOUS ANTIBODY-FREE METHOD FOR DETECTING A TARGET NUCLEIC ACID IN A SAMPLE” (UNIVERSITÄT HEIDELBERG, priority 2022, published 2026)
Entries after “also recorded” stand apart in the source; their conditions may differ. Marks after values point to notes of the source that are not given here.

Legend:
latent papain P13 = molecular target: T1, latent papain P13 (Carica papaya, UniProt P00784); test: Latent papain reactivation assay with thiol activators at 10 μM, rates normalized to 10 μM cysteine (FIG. 18); assay type: biochemical; conditions: activator 10 μM, latent papain 1 nM, Z-Phe-Arg-AMC 2 μM; for normalized ratio rate/rate 10 μM cysteine of substrate hydrolysis after reactivation of latent papain: well buffer pH 7, no TCEP
T1 construct: purchased Sigma Aldrich (Munich, Germany); host or cells: Papaya latex (natural source)
T1 sequence (P00784 134-345): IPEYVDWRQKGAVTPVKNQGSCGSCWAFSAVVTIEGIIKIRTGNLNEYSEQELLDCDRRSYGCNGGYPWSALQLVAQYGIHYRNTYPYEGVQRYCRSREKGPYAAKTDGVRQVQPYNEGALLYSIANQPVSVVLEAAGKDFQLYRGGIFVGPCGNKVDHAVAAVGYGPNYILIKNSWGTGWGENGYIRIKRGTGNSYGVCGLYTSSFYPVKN
Procedure: All following described fluorometric assays (Examples 1-3) are based on the reaction of reversibly inactivated papain (latent papain) with an activator containing either sulfur or selenium (with the exception of TCEP). Different latent papain forms, buffer compositions and activators in various concentrations were compared. Papain was hereby transferred in buffer (standard well buffer consisted of 0.1 M phosphate pH 7, 4 mM EDTA, 0.01% Brij35 and if activators contained diselenides, 1 μM TCEP) mixed with activator and substrate inside 96 well plates (without prior washing of the plates). After reactivation, active papain hydrolyses the substrate Z-Phe-Arg-AMC (2 μM) and the resulting fluorescence was tracked every minute for 2 h. The slopes of the corresponding curves were calculated for the linear portion within the first 30 minutes and the resulting reaction rates were directly compared. Resulting reaction rates directly reflect reactivation efficiencies of each activator under each reaction condition. […] After addition of activator a fraction of latent papain is immediately reactivated in rather non-stoichiometric proportions. Complete reactivation can generally only be achieved with great excess of activator. The partial reactivation with smaller activator amounts appears almost instantaneously because the resulting reaction curve show linear progression from the start except for very low activator concentrations. After reactivation, all different latent papain forms result in the same active enzyme. If different latent papain forms show different reaction rates in identical activation assays, the efficiency of reactivation with the applied activator can be deduced. The same applies for reactivation of one latent papain form with different activators or reaction conditions.
Several thiol compounds and cysteine containing peptide activators (see Example 4.1) were compared for their potential to reactivate latent papain. To this end, the thiol compounds and cysteine containing peptide activators were utilized in reactivation assays (see Example 5, 5.2.2.2, fluorometric method 2) of papain P13 (see Example 1, 1.2) with an activator concentration of 10 μM. For thiols not completely soluble in phosphate buffer pH 7 at high concentrations, the 1 mM stock solution was prepared in DMSO, resulting in 1% DMSO in the reaction mixture. In order to normalize the observed reaction rates between assays, a 10 μM cysteine sample was additionally measured in every assay and reaction rates of the examined thiols were divided through the reaction rates produced by the 10 μM cysteine standard. Additionally, a measurement with 1 mM cysteine was performed in order to achieve maximal papain activation and therefore the maximal reaction rate within the confines of the assay. The resulting normalized rates are compared in FIG. 18.
(§1) Different assays of reactivating latent papain in solution were conducted in the course of this work. Various buffer compositions, supplements, 96 well plates, substrates, activators, concentrations as well as different latent papain forms were compared. In order to get an overview of all experiments, a standard method is described in the following and variations of this method are subsequently defined. First, the well buffer was prepared (0.1 M phosphate buffer pH 7, 4 mM EDTA, 0.01% Brij35). A 1 mM TCEP solution was prepared with 3 mM NaOH in 0.1 M Tris-HCl buffer pH 8. Papain substrate (Z-Phe-Arg-AMC or Suc-Leu-Leu-Val-Tyr-AMC) was prepared as a 200 μM solution in water and transferred equally to a PCR strip. Three serial dilutions of the activating agent with well buffer were used in the different experiments and the corresponding pipetting schemes are shown in Table 9. Papain was diluted to 0.1 μM with well buffer and transferred equally to a PCR strip. After preparation of the abovementioned solutions, TCEP (1 mM solution) was added to well buffer to yield a final TCEP concentration of 1.1 μM. […]

[1] = cited from earlier work; for pKa (H2O): published values, source mark b or d legible
latent papain = molecular target: T2, latent papain (Carica papaya, UniProt P00784); test: Latent papain reactivation with selenium/thiol activators in presence of TCEP, rates normalized to blank (FIG. 22); assay type: biochemical; conditions: 50 pM-100 nM activator, latent papain 1 nM, 1 μM TCEP (FIG. 22)
T2 construct: purchased Sigma Aldrich (Munich, Germany); host or cells: Papaya latex (natural source)
T2 sequence (P00784 134-345): T1 sequence (P00784 134-345)
Procedure: To this end, cysteine ethyl ester, DTT, DTBA (9) and SeDTBA (11) were chosen for a direct comparison. […] The resulting reaction rates were normalized against the background activity and the resulting normalized rates are presented in FIG. 22 for the concentration range of 50 pM-100 nM.
Different assays of reactivating latent papain in solution were conducted in the course of this work. Various buffer compositions, supplements, 96 well plates, substrates, activators, concentrations as well as different latent papain forms were compared. In order to get an overview of all experiments, a standard method is described in the following and variations of this method are subsequently defined. First, the well buffer was prepared (0.1 M phosphate buffer pH 7, 4 mM EDTA, 0.01% Brij35). A 1 mM TCEP solution was prepared with 3 mM NaOH in 0.1 M Tris-HCl buffer pH 8. Papain substrate (Z-Phe-Arg-AMC or Suc-Leu-Leu-Val-Tyr-AMC) was prepared as a 200 μM solution in water and transferred equally to a PCR strip. Three serial dilutions of the activating agent with well buffer were used in the different experiments and the corresponding pipetting schemes are shown in Table 9. Papain was diluted to 0.1 μM with well buffer and transferred equally to a PCR strip. […] After mixing, 30 μL of the prepared activator concentrations (see Table 9) were added and mixed. In the last step, 3.8 μL of the substrate solution was added and mixed, to yield a final well composition of 0.1 M phosphate buffer pH 7, 1 nM papain, 2 μM substrate, activator (see Table 9), 4 mM EDTA, 0.01% Brij35 and 1 μM TCEP. For experiments with only one activator concentration of 10 μM, the transferred well buffer for each well was 368.6 μL, followed by 3.8 μL of papain, substrate and activator (1 mM in well buffer) respectively.

[2] = molecular target: T3, latent papain forms P20-P28 (Carica papaya, UniProt P00784); test: Comparison of reactivation efficiencies of latent papain forms with activator dU-triazole-PEG3-ULR (21) (FIG. 15, 16); assay type: biochemical; conditions: for reaction rate of substrate hydrolysis after reactivation (not normalized), in words / normalized rate/rate blank after reactivation, in words: activator dU-triazole-PEG3-ULR (21) 1-15 nM; for reaction rate of substrate hydrolysis after reactivation (not normalized), in words: papain 1 nM (FIG. 15); for normalized rate/rate blank after reactivation, in words: papain 1 nM (FIG. 16)
T3 construct: purchased Sigma Aldrich (Munich, Germany); host or cells: Papaya latex (natural source)
T3 sequence (P00784 134-345): T1 sequence (P00784 134-345)
Procedure: In order to reversibly deactivate commercially purchased papain, reactions with different thiosulfonate derivatives were carried out and different latent papain versions were produced. Papain was first incubated with cysteine to yield complete activated papain which could then be incubated and deactivated with the specific thiosulfonate solutions. A mixture of papain disulfides is otherwise to be expected. An additional step was introduced in this work with the goal of further reduction of residual enzymatic activity. After incubation with either thiosulfonate derivative, papain was thus incubated with equimolar amounts of the more efficient irreversible inhibitor E64 (see Example 5, 5.2.1.2) in order to deactivate possible unmodified papain traces. The excess of small molecules was then separated by Sephadex G25 spin columns. Different thiosulfonates were synthesized (data not shown) and used to produce different latent papain forms, to the authors best knowledge yet unknown to literature (P23, P24 and P26), with their reactivation efficiency directly compared. The four thiosulfonates S-benzyl (1)-, S-propyl (2)-, S-(2-acetic acid) (3)- and S-(2-aminoethyl) (5)-ethanethiosulfonate are shown in FIGS. 6 and 13.
All latent papain forms were synthesized as described (see Example 5, 5.2.1.2) and concentrations of the stock solutions were determined (see Example 5, 5.2.1.3) and are shown in FIG. 14. In favor of allowing for precise comparison of all different papain forms, papain P20-28 were produced and processed simultaneously, whereas production of P28 differed in lack of pre-activation with cysteine and incubation with E64 in order to examine if those two steps are indeed affecting the latent papain quality (P20 vs. P28).
The successfully produced latent papain forms were then utilized in a reactivation assay in accordance with the method of the invention (see Example 5, 5.2.2.2), fluorometric method 1) with the selenocysteine containing activator dU-triazole-PEG3-ULR (21) in concentrations from 1 nM-15 nM. The resulting reaction rates of every papain and every activator concentration are directly compared in FIG. 15.
On second look, it becomes clear that the calculated rates have to be considered in relation to the residual papain activity. Without activator present, the rates of papain differ greatly between the latent derivatives. This must be due solely to their chemical properties and not to a result of remaining active papain after incubation with thiosulfonate, because subsequent incubation with equimolar amounts of E64 inhibitor will inevitably deactivate remaining active papain irreversibly (see Example 5, 5.2.1.2). In order to normalize the presented reaction rates, they were divided through the reaction rate of the corresponding residual activity (blank value) and results are shown in FIG. 16.
as §1

Molecule: O=[N+]([O-])c1ccc(S)nc1 [2-mercapto-5-nitropyridine, 2-Mercapto-5-nitropyridine]
- reaction rate compared to L-cysteine (latent papain P13; pH 7): less than 15%
- pKa of thiol, as discussed in text [1]: 7.1

Molecule: Sc1ccc(Br)cc1 [4-Bromothiophenol]
- pKa (H2O) [1]: 6.0^b

Molecule: COc1ccc(S)cc1 [4-Methoxythiophenol]
- pKa (H2O) [1]: 6.8^b

Molecule: O[C@@H](CS)[C@@H](O)CS [DTT]
- activator efficiency (normalized rate/rate blank), in words (latent papain): no substantial rate increase

Molecule: SCc1ccccc1 [benzyl mercaptan, Benzylmercaptan]
- normalized ratio rate/rate 10 μM cysteine of substrate hydrolysis after reactivation of latent papain (latent papain P13): 1.69
- pKa (H2O) [1]: 9.4^b

Molecule: O=S(=O)(CCS)CCS [bis(2-mercaptoethyl) sulfone]
- normalized ratio rate/rate 10 μM cysteine of substrate hydrolysis after reactivation of latent papain (latent papain P13): 3.17
- pKa of thiol, as discussed in text [1]: 7.9

Molecule: seleno-dithiobutylamin [SeDTBA (11)]
- activator efficiency (normalized rate/rate blank), in words (latent papain): second most efficient activator; also recorded: almost twice as high compared to DTBA (9)

B1: P23: latent papain form with positively charged aminoethyl disulfide residue (protein)
chain: T1 sequence (P00784 134-345)
- reaction rate of substrate hydrolysis after reactivation (not normalized), in words [2]: by far the most efficiently reactivated latent papain form

B2: P25: latent papain form with propyl disulfide residue (protein)
chain: T1 sequence (P00784 134-345)
- normalized rate/rate blank after reactivation, in words [2]: surprisingly low reactivation potential

B3: P20: latent papain, methyl mixed disulfide, with cysteine pre-activation and E64 (protein)
chain: T1 sequence (P00784 134-345)
- normalized rate/rate blank after reactivation, in words [2]: highest of all papain forms; also recorded: twice as high as P28
- residual activity rate compared to P23 ([2]; without activator (blank), papain 1 nM): 25%

B4: P26: latent papain form with benzyl disulfide residue (protein)
chain: T1 sequence (P00784 134-345)
- reaction rate of substrate hydrolysis after reactivation (not normalized), in words [2]: greatly reduced rates
- normalized rate/rate blank after reactivation, in words [2]: third highest normalized rate values

B5: P24: latent papain form with negatively charged acetic acid disulfide residue (protein)
chain: T1 sequence (P00784 134-345)
- normalized rate/rate blank after reactivation, in words [2]: low normalized rates
